This is an account of results in ChEMBL document CHEMBL3045609, “Synthesis and fungicidal activity of tubulin polymerisation promoters. Part 1: pyrido[2,3-b]pyrazines” (2010).

Holding throughout (type): functional
In assay [1] the test system is Puccinia triticina. The assay is described as follows: Antifungal activity against Puccinia triticina infected 2 weeks old wheat plant assessed as reduction of diseased leaf area treated 1 day before infection measured after 11 days.
The subject of assay [2] is Pyricularia grisea. The assay is described as follows: Antifungal activity against Magnaporthe grisea infected 3 weeks old rice plant assessed as reduction of diseased leaf area treated 2 days before infection measured after 6 days.
In assay [3] the test system is Zymoseptoria tritici. Put plainly: Antifungal activity against Zymoseptoria tritici infected 2 weeks old wheat plant assessed as reduction of diseased leaf area treated 1 day before infection measured after 16 to 18 days.

Molecules are shown by their SMILES. In brackets after ≈: the same amount, converted by molar mass. Where only a bound is given, the exact number is not on record here.

The term EC80 denotes the point of the concentration-response curve where the effect stands at 80%.

For the compound `CC(C)[C@@H](C)Nc1c(-c2c(F)cc(F)cc2F)c(F)nc2nccnc12`, the results for the EC80 in assay [1], in assay [2] and in assay [3] were < 6 µg/mL, 11 µg/mL (≈ 30.2 µM) and < 2 µg/mL, respectively.
With `CCC(Nc1c(-c2c(F)cc(F)cc2F)c(F)nc2nccnc12)C(F)(F)F` (configuration not stated), the 80% effect concentration (EC80) in assay [1] is 10 µg/mL (≈ 24.7 µM); in assay [2] it was 10 µg/mL (≈ 24.7 µM); in assay [3], < 2 µg/mL.
For the compound `COc1nc2nccnc2c(NCC(C)C)c1-c1ncc(Cl)cc1F`, the EC80 was > 200 µg/mL in assay [1], 29 µg/mL (≈ 80.2 µM) in assay [2] and 10 µg/mL (≈ 27.6 µM) in assay [3].
For `Fc1cc(F)c(-c2c(F)nc3nccnc3c2NCC(F)(F)F)c(F)c1`, in that order: 20 µg/mL (≈ 53.2 µM), 11 µg/mL (≈ 29.2 µM) and 16 µg/mL (≈ 42.5 µM).
For `C=CCOC(=O)[C@@H](Nc1c(-c2c(F)cc(F)cc2F)c(F)nc2nccnc12)C(C)C`, the EC80 came out at 31 µg/mL (≈ 71.4 µM) in assay [1], 110 µg/mL (≈ 253 µM) in assay [2] and 21 µg/mL (≈ 48.3 µM) in assay [3].
For `CCC(C)Nc1c(-c2c(F)cc(F)cc2F)c(F)nc2nccnc12` (configuration not stated), in that order: 56 µg/mL (≈ 160 µM), 9 µg/mL (≈ 25.7 µM) and 26 µg/mL (≈ 74.2 µM).
Taken in the same sequence, the figures for `CC(C)CNc1c(-c2cccc(F)c2F)c(F)nc2nccnc12` were 157 µg/mL (≈ 472 µM), > 200 µg/mL and 74 µg/mL (≈ 223 µM).
Taken in the same sequence, the figures for `COc1nc2nccnc2c(NCC(C)C)c1C#Cc1ccccc1` were > 200 µg/mL, > 200 µg/mL and 67 µg/mL (≈ 202 µM).
As for `CC(C)CNc1c(-c2cc(F)ccc2F)c(F)nc2nccnc12`, the EC80 is 118 µg/mL (≈ 355 µM) in assay [1], > 200 µg/mL in assay [2] and 80 µg/mL (≈ 241 µM) in assay [3].
With `CC(C)[C@@H](C)Nc1c(-c2c(F)cc(F)cc2F)c(Cl)nc2nccnc12`, the EC80 in assay [1] is 77 µg/mL (≈ 202 µM); in assay [2], > 200 µg/mL; in assay [3] it was 47 µg/mL (≈ 123 µM).
For `C[C@H](Nc1c(-c2c(F)cc(F)cc2F)c(F)nc2nccnc12)C(F)(F)F`, in that order: 39 µg/mL (≈ 99.9 µM), 35 µg/mL (≈ 89.7 µM) and 5 µg/mL (≈ 12.8 µM).
In the case of `COc1nc2nccnc2c(N[C@H](C)C(C)C)c1-c1ncc(Cl)cc1Cl`, the EC80 is 26 µg/mL (≈ 66.3 µM) in assay [1], 15 µg/mL (≈ 38.2 µM) in assay [2] and < 6 µg/mL in assay [3].
Taken in the same sequence, the figures for `CC(C)(C)Nc1c(-c2c(F)cc(F)cc2F)c(F)nc2nccnc12` were > 200 µg/mL, 35 µg/mL (≈ 99.9 µM) and 19 µg/mL (≈ 54.2 µM).
Taken in the same sequence, the figures for `COC(=O)[C@@H](Nc1c(-c2c(F)cc(F)cc2F)c(F)nc2nccnc12)C(C)C` were < 6 µg/mL, 57 µg/mL (≈ 140 µM) and 7 µg/mL (≈ 17.1 µM).
For `COc1nc2nccnc2c(N[C@H](C)C(C)C)c1-c1c(F)cc(F)cc1F`, in that order: 129 µg/mL (≈ 343 µM), 100 µg/mL (≈ 266 µM) and 32 µg/mL (≈ 85 µM).
`COc1nc2nccnc2c(NCC(C)C)c1-c1c(F)cc(F)cc1F`: the EC80 in assay [1] was 35 µg/mL (≈ 96.6 µM); in assay [2], 42 µg/mL (≈ 116 µM); in assay [3] it was 50 µg/mL (≈ 138 µM).
Taken in the same sequence, the figures for `Fc1cc(F)c(-c2c(F)nc3nccnc3c2NC(C2CC2)C(F)(F)F)c(F)c1` (configuration not stated) were 16 µg/mL (≈ 38.4 µM), 104 µg/mL (≈ 250 µM) and < 6 µg/mL.
Taken in the same sequence, the figures for `COc1nc2nccnc2c(NCC(C)C)c1-c1c(F)cccc1Cl` were 134 µg/mL (≈ 371 µM), 110 µg/mL (≈ 305 µM) and > 200 µg/mL.
For the compound `CC(C)C(C)Nc1c(-c2c(F)cc(F)cc2F)c(F)nc2nccnc12` (configuration not stated), the values for the EC80 in assay [1], in assay [2] and in assay [3] were < 20 µg/mL, 26 µg/mL (≈ 71.4 µM) and 15 µg/mL (≈ 41.2 µM), respectively.
